By inhibition is commonly meant how much of the control response was suppressed. Lower therefore signals little suppression.

For data set [1], the system named is HMEC-1. Description: Endothelial network formation assay on Matrigel. The format is cell-based, human. The conditions noted are these: for endothelial network (tubule) formation on Matrigel: 3 μM, 1% FBS, 50 ng/ml FGF-2, 2, 4, 6 and 24 h. How it is done: Endothelial network formation assay. HMEC-1 (4×10^4 cells/well) in MCDB131 containing 1% FBS and compound (1 or 3 μM) or curcumin (1-40 μM) and 50 ng/ml FGF-2 were added to 96-well plates coated overnight at 4° C. with 100 μl of growth factor-reduced reconstituted basement membrane matrix (Matrigel, cat. 354230, Corning, NY). Network formation was observed over subsequent hours and photographed under 4× or 10× objective using an Olympus CKX41 microscope.

Data set [2] relates to HMEC-1. Kind of data set: Endothelial proliferation assay using the xCELLigence system. It is filed as cell-based, human. The note with it: HMEC-1, 5% FBS, 79 h; for serum-inducible endothelial proliferation (xCELLigence cell index): 0.2-1 μM. As for the experimental part: Endothelial proliferation assay using the xCELLigence system. HMEC-1 proliferation was evaluated using the xCELLigence System (Roche, Castle Hill). Briefly, HMEC-1 (5×10^3 cells/well) were seeded in a 96-well E-plate and inserted into the xCELLigence RTCA station (Roche). Cells were serum-deprived for 24 h in MCDB131 medium which contained 10 ng/ml EGF (Sigma-Aldrich) and 1 μg/ml hydrocortisone (Sigma-Aldrich) then treated with compound (0.2-1 μM) in medium containing 5% FBS, 10 ng/ml EGF (Sigma-Aldrich) and 1 μg/ml hydrocortisone (Sigma-Aldrich). Cell growth was monitored automatically every 15 min by xCELLigence system. Cell index (CI) represents a quantitative measure of each well cell growth. In this system, CI a unitless parameter that reports impedance of electron flow caused by adherent cells.

Data set [3] is described as follows: Solubility on dilution in medium containing serum. The note with it: dilution in medium containing serum. The format is physicochemical.
For data set [4], the target named is T1, Recombinant human His-MEK2 (Homo sapiens, UniProt P36507).
T1 construct: purchased ThermoFisher Scientific PV3615
T1 sequence (P36507 whole entry): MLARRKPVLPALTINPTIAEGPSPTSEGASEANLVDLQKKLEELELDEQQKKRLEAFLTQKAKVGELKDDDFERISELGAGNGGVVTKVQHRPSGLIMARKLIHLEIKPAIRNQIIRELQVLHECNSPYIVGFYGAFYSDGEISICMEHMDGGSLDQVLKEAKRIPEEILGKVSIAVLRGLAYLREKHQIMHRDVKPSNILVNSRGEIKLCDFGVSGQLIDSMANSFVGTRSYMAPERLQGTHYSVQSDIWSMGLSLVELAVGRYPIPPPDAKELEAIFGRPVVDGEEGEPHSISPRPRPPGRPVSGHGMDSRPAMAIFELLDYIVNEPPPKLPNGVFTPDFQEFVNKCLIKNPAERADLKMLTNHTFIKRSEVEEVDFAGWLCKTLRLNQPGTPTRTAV
Description: SPR (Biacore T200) on immobilised His-MEK2. It is filed as binding. The conditions noted are these: 15° C.; 20 mM HEPES, 150 mM NaCl, 5% DMSO pH 7.4. As for the experimental part: (§1) SPR. SPR was performed on a Biacore T200. The active and reference flow cells of a Xantec NIHMC Ni sensor chip were conditioned with 0.5M NaEDTA followed by 5 mM NiCl2 in immobilisation buffer (20 mM HEPES, 150 mM NaCl, pH 7.4). Recombinant human His-MEK1 and His-MEK2 (500 nM, ThermoFisher Scientific, cat. PV3303 and PV3615, respectively) were injected for 15 min at 10 μl min^−1 over separate active flow cells. All immobilisation was carried out at 25° C. Following immobilisation, the temperature was lowered to 15° C., and the buffer changed to 20 mM HEPES, 150 mM NaCl, 5% DMSO pH 7.4. Samples of PD98059 (2.5-30 μM in running buffer) and BT2 (1.25-15 μM) were injected at a flow rate of 30 μl min^−1 over immobilised MEK1 and MEK2. Solvent correction was applied to the data using a DMSO standard curve. Data were analysed using the Biacore T200 Evaluation software. Prior to SPR, limits of compound solubility were determined using ^1H 1D NMR.

The target of data set [5] is T2, Recombinant human His-MEK1 (Homo sapiens, UniProt Q02750).
T2 construct: purchased ThermoFisher Scientific PV3303
T2 sequence (Q02750 whole entry): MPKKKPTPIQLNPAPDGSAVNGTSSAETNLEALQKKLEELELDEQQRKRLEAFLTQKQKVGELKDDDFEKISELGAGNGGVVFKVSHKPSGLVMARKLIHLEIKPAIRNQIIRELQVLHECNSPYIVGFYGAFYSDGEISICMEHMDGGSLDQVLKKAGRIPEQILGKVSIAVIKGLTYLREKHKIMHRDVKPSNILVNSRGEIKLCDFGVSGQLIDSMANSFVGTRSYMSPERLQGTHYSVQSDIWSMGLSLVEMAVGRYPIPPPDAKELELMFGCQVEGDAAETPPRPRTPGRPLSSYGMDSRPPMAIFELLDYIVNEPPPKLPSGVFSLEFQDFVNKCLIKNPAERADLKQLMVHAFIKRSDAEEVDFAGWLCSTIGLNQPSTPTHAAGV
Kind of data set: SPR (Biacore T200) on immobilised His-MEK1. It is filed as binding. The note with it: 15° C.; 20 mM HEPES, 150 mM NaCl, 5% DMSO pH 7.4. How it is done: as §1

The test system of a further data set is FosB/ΔFosB. Description: Western blot, serum-inducible FosB/ΔFosB expression in HMEC-1. It is filed as cell-based, human. The conditions noted are these: 30 μM compound, 10% FBS 1 h. As for the experimental part: (§2) Western blot analysis with extracts of cells treated with serum. HMEC-1 (80-90% confluency) were arrested in serum-free MCDB131 medium without EGF or hydrocortisone for 20 h. Cells were treated with 30 μM compound in serum-free MCDB131 medium for 4 h, and the medium was changed to complete medium (with 10% FBS with EGF and hydrocortisone) with 30 μM compound for 1 h. Total protein was harvested as previously described in radioimmunoprecipitation (RIPA) lysis buffer with protease inhibitors (Li, Y., et al., Int J Cardiol 220, 185-191 (2016)). Proteins were resolved on 4-20% (w/v) sodium dodecyl sulfate (SDS)-polyacrylamide gradient gels (Bio-Rad Mini-PROTEAN TGX) and transferred to Immobilon-P PVDF membranes (Millipore, USA). Membranes were blocked with 5% skim milk and incubated with rabbit monoclonal FosB (cat. 2251, 1:1000, Cell Signaling, USA), rabbit monoclonal c-Fos antibodies (cat. 2250, 1:1000, Cell Signaling, USA) at 4° C. overnight or mouse monoclonal […] antibodies (cat. A5316, 1:30000, Sigma-Aldrich) at 22° C. for 15 min then incubated with a horseradish peroxidase conjugated secondary goat anti-rabbit (cat. P0448, 1:1000, DAKO Cytomation, Denmark) or goat anti-mouse (cat. P0447, 1:1000, DAKO Cytomation, Denmark) antibodies for 1 h. Chemiluminescence was detected using the Western Lightning Chemiluminescence system (PerkinElmer, USA) and ImageQuant™ LAS 4000 biomolecular imager (GE Healthcare Life Sciences, USA). Band intensity in images generated with the LAS 4000 on automatic exposure with sensitivity/resolution setting high was quantified using NIH ImageJ.

Data set [6] concerns HMEC-1. Description: Endothelial repair following in vitro injury (scratch assay). The format is cell-based, human. The note with it: 0.6 μM, 5% FBS, 48 h. How it is done: Endothelial repair following in vitro injury. HMEC-1 (90-100% confluency) in 6-well plates were washed with PBS, and treated with 0.6 μM compound in MCDB131 containing 5% FBS. A sterile pointed toothpick was used to scrape the cell monolayer and the wells photographed under 4× objective at 0 h and 48 h. Cell regrowth in the denuded zone was determined using Image-Pro Plus (Cybernetics, USA).

The next data set concerns c-Fos. Kind of data set: Western blot, serum-inducible c-Fos expression in HMEC-1. It is filed as cell-based, human. The conditions noted are these: 30 μM compound, 10% FBS 1 h. How it is done: as §2
For orientation: In western blotting, separated proteins are transferred to a membrane and probed.

A further data set concerns BAEC. Kind of data set: Endothelial dual chamber migration assay toward VEGF-A165. It is filed as cell-based, bovine. The note with it: 1 μM; Transwell; 10% FBS and 50 ng/ml VEGF-A165 in lower chamber; 24 h. As for the experimental part: Endothelial dual chamber migration assay. BAEC (6×10^3 cells/well) suspended in DMEM supplemented with 10% FBS were seeded into the upper chamber of 24-well plates fitted with Millicell cell culture inserts (cat. PI8P01250, Millipore). After 48 h, the medium was changed to DMEM supplemented with 0.01% FBS and the cells were incubated for 48 h. Compounds prepared in DMEM containing 0.01% FBS were added to the upper chamber. VEGF-A165 (50 ng/ml, Sigma, cat. V7259) in medium containing 10% FBS was added to the lower chamber. After 24 h, medium from the upper chamber was removed and a cotton swab was used to remove non-migrated cells and excess liquid. The insert was placed in 70% ethanol for 10 min to allow cell fixation and membranes were dried for 10-15 min. Filters were excised and placed on slides. Mounting medium (Fluoroshield™ with DAPI, Sigma, cat. 6057) was added and specimens were visualized using an EVOS FL microscope.

Another data set deals with p-p38. Kind of data set: Western blot, IL-1β-inducible p-p38 in HMEC-1. It is filed as cell-based, human. The note with it: 1-30 μM. As for the experimental part: (§3) Western blot analysis with extracts of cells treated with IL-13. HMEC-1 (80-90% confluency) were arrested in serum-free MCDB131 medium (Invitrogen, MD) without any growth factor for 48 h. Cells were treated with 30 μM compound in serum-free medium for 4 h, and incubated with 20 ng/ml IL-1β (Sigma, cat. SRE3083) in serum-free medium with the same concentration of compound for up to 4 h, unless otherwise indicated. Total protein was harvested as previously described using RIPA buffer with protease inhibitors. Proteins were resolved on 4-20% (w/v) SDS-polyacrylamide gradient gels and transferred to Immobilon-P PVDF membranes. […] Chemiluminescence was detected using the Western Lightning Chemiluminescence system and ImageQuant™ LAS 4000 biomolecular imager. Band intensity in images generated with the LAS 4000 using the same settings were quantified by NIH ImageJ.

The next data set relates to p-SAPK/JNK. Kind of data set: Western blot, IL-1β-inducible p-SAPK/JNK in HMEC-1. The conditions noted are these: 1-30 μM. The format is cell-based, human. How it is done:
as §3

For `CCN1C(=O)c2cc(NC(=O)COC)ccc2Oc2ccccc21` [BT2-MeOA, N-(10-ethyl-11-oxo-10,11-dihydrodibenzo[b,f][1,4]oxazepin-2-yl)-2-methoxyacetamide], the “inhibition of network formation on Matrigel (FIG. 5B)” value in the data set on HMEC-1 [1] (1 μM) is “Neither BT2-MeOA nor any other BT2 analogue had the ability to inhibit”. In addition, in the data set with HMEC-1 [2] (0.4 or 0.8 μM), the “inhibition of serum-inducible proliferation compared with BT2” value is given as “Neither BT2-MeOA nor any other BT2 analogue had the ability to inhibit”. Also, in [3], the “solubility relative to BT2 and analogues” value is recorded as “greater solubility than BT2”. Besides, the “binding to His-MEK2 (SPR)” value in data set [4] is recorded as “no appreciable binding”. Besides, the “binding to His-MEK1 (SPR)” value in data set [5] is “no appreciable binding”.
Turning to `CCCN1C(=O)c2cc(NC(=O)OCC)ccc2Oc2ccccc21` [BT2-Pr, ethyl (11-oxo-10-propyl-10,11-dihydrodibenzo[b,f][1,4]oxazepin-2-yl)carbamate], in data set [4], the “binding to His-MEK2 (SPR)” value is listed as “no appreciable binding”. Besides, the “binding to His-MEK1 (SPR)” value in [5] is listed as “no appreciable binding”.
On to `COCCOC(=O)NC(=O)Nc1ccc(C(=NO)c2ccc(Cl)cc2)cc1` [Compound T4], for which the “serum-inducible FosB/ΔFosB expression (Western blot)” value in the data set with FosB/ΔFosB is “inhibited less potently”. In addition, the “endothelial regrowth after mechanical injury in vitro” value (shortened to “endothelial regrowth”) in the data set with HMEC-1 [6] is given as “blocked this reparative response”. The “endothelial network (tubule) formation on Matrigel” value with HMEC-1 [1] is “inhibited network formation”. For the same molecule, the “serum-inducible endothelial proliferation (xCELLigence cell index)” value in the data set on HMEC-1 [2] is reported as “inhibited serum-inducible proliferation at concentrations in a dose-dependent manner”. The “serum-inducible c-Fos expression (Western blot)” value with c-Fos was “inhibit”. The “migration of BAEC toward VEGF-A165” value in the data set with BAEC was “inhibited migration”.
As for `COC(=O)Nc1nc2ccc(C(=O)c3ccc(F)cc3)cc2[nH]1` [Compound T6, Flubendazole, reference compound], in the data set with FosB/ΔFosB, the “serum-inducible FosB/ΔFosB expression (Western blot)” value is reported as “inhibited less potently”. Besides, the “endothelial regrowth” value in the data set with HMEC-1 [6] is given as “blocked this reparative response”. Besides, the “endothelial network (tubule) formation on Matrigel” value in the data set on HMEC-1 [1] was “inhibited network formation”. In addition, the “serum-inducible endothelial proliferation (xCELLigence cell index)” value with HMEC-1 [2] was “inhibited serum-inducible proliferation at concentrations in a dose-dependent manner”. In addition, in the data set on c-Fos, the “serum-inducible c-Fos expression (Western blot)” value is on record as “inhibit”. Besides, the “migration of BAEC toward VEGF-A165” value with BAEC is “inhibited migration”.
Consider `Nc1ccc(C(=O)c2ccc(F)cc2)cc1` [Compound T7, (4-aminophenyl)(4-fluorophenyl)methanone], for which the “serum-inducible FosB/ΔFosB expression (Western blot)” value in the data set on FosB/ΔFosB is on record as “no inhibition”. Also, the “endothelial regrowth” value with HMEC-1 [6] is on record as “no such effect”. Besides, the “serum-inducible endothelial proliferation (xCELLigence cell index)” value in the data set on HMEC-1 [2] is given as “no inhibitory effect”.
Turning to `COc1cccc(-c2cc(=O)c3ccccc3o2)c1N` [PD98059, reference compound], in the data set on p-p38, the “IL-1β-inducible p-p38” value was “no effect”. Also, the “migration of BAEC toward VEGF-A165” value in the data set with BAEC is “neither BT3, nor PD98059 (allosteric MEK inhibitor), imatinib (tyrosine kinase inhibitor) or tofacitinib (Janus kinase inhibitor) had an inhibitory effect”. For the same molecule, the “IL-1β-inducible p-SAPK/JNK” value in the data set with p-SAPK/JNK is “no effect”. Moreover, the “binding to His-MEK2 (SPR)” value in data set [4] is “bound to both His-MEK1 and His-MEK2”. For the same molecule, the “binding to His-MEK1 (SPR)” value in data set [5] was “bound to both His-MEK1 and His-MEK2”.
With `COc1cc(/C=C/C(=O)CC(=O)/C=C/c2ccc(O)c(OC)c2)ccc1O` [curcumin, reference compound], in the data set on HMEC-1 [1] (1 μM, after 4 h), the endothelial network formation entry is listed as “no inhibition”. The inhibition at 30 µM in the data set on HMEC-1 [1] (Homo sapiens, 30 μM, after 4 h) was about 25%. This molecule displayed an inhibition at 40 µM in the data set on HMEC-1 [1] (Homo sapiens, 40 μM, after 4 h) of about 50%.
Regarding `Cc1ccc(NC(=O)c2ccc(CN3CCN(C)CC3)cc2)cc1Nc1nccc(-c2cccnc2)n1` [imatinib], in the data set with BAEC, the “migration of BAEC toward VEGF-A165” value was “neither BT3, nor PD98059 (allosteric MEK inhibitor), imatinib (tyrosine kinase inhibitor) or tofacitinib (Janus kinase inhibitor) had an inhibitory effect”.
Still for that read-out and setting: the value for `C[C@@H]1CCN(C(=O)CC#N)C[C@@H]1N(C)c1ncnc2[nH]ccc12` [tofacitinib] was “neither BT3, nor PD98059 (allosteric MEK inhibitor), imatinib (tyrosine kinase inhibitor) or tofacitinib (Janus kinase inhibitor) had an inhibitory effect”.

The values above are taken from patent publication US20260102407A1, “TREATMENT METHODS” (priority 2020, published 2026).
